The values below come from PubChem BioAssay AID651773 (Broad Institute, 2012).

Where “and” joins values, the source holds several entries; their conditions need not be identical. Equal values may be shown once. Records with an inconclusive call do not appear.

This test concerns SK-MEL-5 MITF mRNA qPCR, delta-delta-Ct, overnight. The test can be described thus: MITF transcript level reduction in melanoma cells – cell-based, RT-qPCR, SK-MEL-5, dry powder, dose response (AID 651773).
As to `O=C1C(Nc2ccc(Br)cc2)=C(N2CCCCC2)C(=O)c2ccccc21`, the AC40 was 9.49 µM. The figure for `O=C1C(Nc2ccc(F)cc2)=C(N2CCCCC2)C(=O)c2ccccc21` is 6.7 µM; for `CCN1CCN(C2=C(NS(=O)(=O)c3ccc(Br)cc3)C(=O)c3ccccc3C2=O)CC1` it is 3.65 µM. Take `O=C1C=C(Nc2ccc([N+](=O)[O-])c(C(F)(F)F)c2)C(=O)c2ccccc21`: the AC40 was 0.0868 µM. For the compound `O=C1C=C(NS(=O)(=O)c2ccc(Br)cc2)C(=O)c2ccccc21`, the AC40 was 0.631 µM. Consider `NC1=C(NS(=O)(=O)c2ccccc2)C(=O)c2ccccc2C1=O`, for which the AC40 was 2.76 µM. Take `O=C1C=C(Nc2ccccc2)C(=O)c2ccccc21`: the AC40 was 0.175 µM and 0.189 µM. Under `NS(=O)(=O)c1ccc(NC2=CC(=O)c3ccccc3C2=O)cc1` stands 0.115 µM; under `NC1=CC(=O)c2ccccc2C1=O`, 0.372 µM; under `CN1CCN(C2=C(NS(=O)(=O)c3ccc(Br)s3)C(=O)c3ccccc3C2=O)CC1`, 1.33 µM. In the case of `COC1=C(NS(=O)(=O)c2cccs2)C(=O)c2ccccc2C1=O`, the AC40 was 7.8 µM. Regarding `COC1=C(NS(=O)(=O)c2ccccc2)C(=O)c2ccccc2C1=O`, the AC40 is 1.84 µM. For `O=C1C(Nc2cccc(Cl)c2)=C(N2CCCC2)C(=O)c2ccccc21`, the AC40 was 10.2 µM. For the compound `O=C1C(Nc2ccc(Cl)cc2)=C(N2CCCC2)C(=O)c2ccccc21`, the AC40 is 9.48 µM.

In the case of `COC1=C(NS(=O)(=O)c2ccc(Br)cc2)C(=O)c2ccccc2C1=O`, the AC40 was 6.51 µM. As for `O=C1C=C(NS(=O)(=O)c2cccs2)C(=O)c2ccccc21`, the AC40 was 0.542 µM. Regarding `O=C1C=C(NS(=O)(=O)c2ccccc2)C(=O)c2ccccc21`, the AC40 is 0.196 µM.

With `O=C1C(NS(=O)(=O)c2cccs2)=C(c2ccccc2)C(=O)c2ccccc21`, the AC40 was 4.94 µM. Under `CCN1CCN(C2=C(NC(=O)c3ccccc3)C(=O)c3ccccc3C2=O)CC1` stands 1.28 µM. `NC1=C(NC(=O)c2ccccc2)C(=O)c2ccccc2C1=O`: the AC40 was 0.357 µM. As for `Cc1ccc(NC2=CC(=O)c3ccccc3C2=O)cc1`, the AC40 was 1.65 µM.

As to `COC1=C(Nc2ccccc2)C(=O)c2ccccc2C1=O`, the AC40 was 0.386 µM. Regarding `NC1=C(NS(=O)(=O)c2ccc(Br)cc2)C(=O)c2ccccc2C1=O`, the AC40 was 4.92 µM. Regarding `O=C(NC1=C(Cl)C(=O)c2ccccc2C1=O)c1ccccc1`, the AC40 is 0.179 µM. `O=C1C(Nc2ccccc2)=C(c2ccccc2)C(=O)c2ccccc21`: the AC40 was 5.04 µM. `CN1CCN(C2=C(Nc3ccc(F)cc3F)C(=O)c3ccccc3C2=O)CC1`: the AC40 is 1.82 µM.

With `NC1=C(NS(=O)(=O)c2cccs2)C(=O)c2ccccc2C1=O`, the AC40 was 1.55 µM. Consider `C=CCNC1=C(Cl)C(=O)c2ccccc2C1=O`, for which the AC40 is 0.276 µM. With `CCN1CCN(C2=C(Nc3ccc(F)cc3F)C(=O)c3ccccc3C2=O)CC1`, the AC40 was 2.28 µM. For the compound `CC(C)N1CCN(C2=C(Nc3ccc(F)cc3F)C(=O)c3ccccc3C2=O)CC1`, the AC40 is 1.59 µM. As for `CC(C)N1CCN(C2=C(Nc3ccc(F)cc3)C(=O)c3ccccc3C2=O)CC1`, the AC40 was 5.51 µM.
